Experiments:
[1] = target: human recombinant GABA A receptor containing the alpha2, beta2, and gamma2 subunits (Homo sapiens (Human), UniProt P18507+P47869); test: Radioligand competition binding assay with [3H]Ro-15-1788 (Flumazenil); settings: [3H]flumazenil competition, HEK cell membranes, geometric mean of at least two replicates; read-out: GABA-α2 Ki
Description: The affinity of the test compounds was determined by radioligand competition binding assay, using the known compound [3H]Ro-15-1788 (Flumazenil) (Perkin Elmer, 85.4 Ci/mmol) and the human recombinant GABA A receptor containing the alpha2, beta2, and gamma2 subunits.
Membranes were prepared from HEK cells expressing hGABA A alpha2beta2-gamma2 receptor, and validated to ascertain protein concentration, receptor expression and to determine the Kd of the flumazenil as well as the Ki of a standard set of compounds before being used to test new compounds.
The assay was carried out in 96 well plates; testing compounds using a 10 point semi-log dilution range from 19 uM top concentration. 100 ul of radioligand and 100 ul of membrane in 50 mM Tris-HCl and 0.05% F127 with 1 ul of test compound was incubated for 2 hours to allow the reaction to achieve equilibrium, and then harvested onto filter plates, dried and counted on a TopCount NXT. The data was analysed, and the Ki values were presented as the geometric mean of at least two replicates.

[2] = target: GABRA2-GABRB2-GABRG2 chloride currents in HEK cells (Homo sapiens (Human), UniProt P18507+P47869); test: QPatch electrophysiological recording, % enhancement of GABA current (α2 PAM); assay type: cell-based; settings: % enhancement of GABA current at approximately EC10 GABA, −60 mV, whole-cell patch clamp
Description: Human Embryonic Kidney (HEK) cells were transfected with a GABRA2-GABRB2-GABRG2 construct using standard techniques. Cells stably expressing the GABRA2-GABRB2-GABRG2 constructs were identified by their resistance to Geneticin G-418 (320 μg/ml), Hygromycin (160 μg/ml) and Zeocin (40 μg/ml). Clones were screened for expression using the BD Pathway 855 imaging system (BD Biosciences, Rockville, Md., USA) and QPatch automated electrophysiology platform (Sophion, Copenhagen, Denmark). […]
GABRA2-GABRB2-GABRG2 chloride currents in HEK cells were measured using the whole-cell configuration of the patch-clamp technique (Hamill et al., 1981). […]
All compounds were dissolved in dimethyl sulfoxide to make 30 mM or 10 mM stock solutions, which were then diluted to 1000 times the desired final concentration in dimethyl sulfoxide. […] Currents were recorded at −60 mV, using an approximately EC10 concentration of gamma-aminobutyric acid (GABA). […]
Compound effect (% enhancement of gamma-aminobutyric acid current) was calculated using the following formula: [((peak modulator current amplitude-leak)−(GABA current amplitude-leak))/(GABA current amplitude-leak)]*100, […]

[3] = target: GABRA1-GABRB3-GABRG2 construct in HEK cells (Homo sapiens (Human), UniProt P14867+P18507); test: QPatch electrophysiological recording, % enhancement of GABA current (α1 PAM); assay type: cell-based; settings: % enhancement of GABA current at approximately EC10 GABA, −60 mV, whole-cell patch clamp

Compound: CCn1ncc2c(-c3ccc(F)c(-c4ccc(S(=O)(=O)CC)cc4)c3)cnnc21 [Example 2, 4-(4′-Ethanesulfonyl-6-fluorobiphenyl-3-yl)-1-ethyl-1H-pyrazolo[3,4-c]pyridazine]
- Ki [1]: 0.0175 µM
- α2 PAM [2]: 109%
- α1 PAM [3]: 52%

Compound: CCn1ncc2c(-c3ccc(F)c(-c4ccc(S(=O)(=O)CC)cc4OC)c3)cnnc21 [Example 1, 4-(4′-Ethanesulfonyl-6-fluoro-2′-methoxybiphenyl-3-yl)-1-ethyl-1H-pyrazolo[3,4-c]pyridazine]
- Ki [1]: < 0.0006 µM
- α2 PAM [2]: 109%
- α1 PAM [3]: 18%

— patent publication US10538523B2, “4-(biphen-3-yl)-1H-pyrazolo[3,4-c]pyridazine derivatives of formula (I) as GABA receptor modulators for use in the treatment of epilepsy and pain” (PFIZER LIMITED, priority 2015, dated 2020)
